Earlier results on two compounds are cited in patent publication US8192721B2, “Compositions useful for reducing toxicity associated with gadolinium-based contrast agents” (Verrow Pharmaceuticals, Inc., priority 2007, dated 2012).

For series [1] the following is noted: healthy subjects with normal renal function.
For series [2] the following is noted: compared with underivatized β-cyclodextrin.

With `[Gd]` [gadolinium], the plasma half-life entry in series [1] is “approximately 90 minutes”.
Regarding “β-cyclodextrin sulfobutyl ethers [Captisol®]”, in series [2], the nephrotoxicity entry is given as “does not exhibit the nephrotoxicity”.
